Common to all, as to experiment: relative viability (nuclei count vs DMSO), 5 days (fraction); higher = more cells survive
Compound in the assay “Seliciclib + Decitabine”: CC[C@H](CO)Nc1nc(NCc2ccccc2)c2ncn(C(C)C)c2n1 [Seliciclib] + Nc1ncn([C@H]2C[C@H](O)[C@@H](CO)O2)c(=O)n1 [Decitabine] (partner 2 µM)
In outline: (§1)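 Relative viability was taken as the ratio of nuclei in treated wells to nuclei in vehicle wells. Lung cancer cell lines in 1536-well plates received compounds by pin tool one day after seeding, either one drug alone or a fixed anchor-drug dose plus five library-drug doses (not always all listed) in √10 steps. Nuclei were counted on 4× images after 5 days of treatment, and values are medians of duplicate plates.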

Compound in the assay “Seliciclib + Phenformin”: CC[C@H](CO)Nc1nc(NCc2ccccc2)c2ncn(C(C)C)c2n1 [Seliciclib] + N=C(N)NC(=N)NCCc1ccccc1 [Phenformin] (partner 250 µM)
The gist of the method: as §1

Compound in the assay “Seliciclib + Palbociclib”: CC[C@H](CO)Nc1nc(NCc2ccccc2)c2ncn(C(C)C)c2n1 [Seliciclib] + CC(=O)c1c(C)c2cnc(Nc3ccc(N4CCNCC4)cn3)nc2n(C2CCCC2)c1=O [Palbociclib] (partner 0.5 µM)
The gist of the method: as §1

Compound in the assay “Seliciclib + Pictilisib”: CC[C@H](CO)Nc1nc(NCc2ccccc2)c2ncn(C(C)C)c2n1 [Seliciclib] + CS(=O)(=O)N1CCN(Cc2cc3nc(-c4cccc5[nH]ncc45)nc(N4CCOCC4)c3s2)CC1 [Pictilisib] (partner 1 µM)
The gist of the method:
as §1

Six cell lines from the supplement of paper PMC10307832 can be followed below.

Consider NCI-H2023, for which the relative viability with Seliciclib + Decitabine (first compound 0.08 µM) is 0.217; with Seliciclib + Decitabine (first compound 0.253 µM), 0.216; in the assay with Seliciclib + Decitabine (first compound 0.8 µM) it was 0.203; in the assay with Seliciclib + Decitabine (first compound 2.53 µM) it was 0.267; with Seliciclib + Decitabine (first compound 8 µM), 0.248; in the assay with Seliciclib + Phenformin (first compound 0.08 µM), 0.41. Further, the relative viability in the assay with Seliciclib + Phenformin (first compound 0.253 µM) is 0.417; with Seliciclib + Phenformin (first compound 0.8 µM), 0.411; in the assay with Seliciclib + Phenformin (first compound 2.53 µM), 0.468; in the assay with Seliciclib + Phenformin (first compound 8 µM), 0.312; with Seliciclib + Palbociclib (first compound 0.08 µM) it was 0.366; with Seliciclib + Palbociclib (first compound 0.253 µM), 0.324. In addition, the relative viability with Seliciclib + Palbociclib (first compound 0.8 µM) turned out to be 0.295; with Seliciclib + Palbociclib (first compound 2.53 µM), 0.183; in the assay with Seliciclib + Palbociclib (first compound 8 µM), 0.159; in the assay with Seliciclib + Pictilisib (first compound 0.08 µM), 0.227; with Seliciclib + Pictilisib (first compound 0.253 µM) it was 0.224; in the assay with Seliciclib + Pictilisib (first compound 0.8 µM), 0.232. For the same cell line, the relative viability in the assay with Seliciclib + Pictilisib (first compound 2.53 µM) turned out to be 0.164; in the assay with Seliciclib + Pictilisib (first compound 8 µM), 0.182.

Consider COR-L 105, for which the relative viability in the assay with Seliciclib + Decitabine (first compound 0.08 µM) came out at 0.568; with Seliciclib + Decitabine (first compound 0.253 µM), 0.664; in the assay with Seliciclib + Decitabine (first compound 0.8 µM), 0.648; in the assay with Seliciclib + Decitabine (first compound 2.53 µM), 0.605; in the assay with Seliciclib + Decitabine (first compound 8 µM), 0.557; with Seliciclib + Phenformin (first compound 0.08 µM), 0.466. The relative viability in the assay with Seliciclib + Phenformin (first compound 0.253 µM) amounted to 0.565; with Seliciclib + Phenformin (first compound 0.8 µM), 0.549; in the assay with Seliciclib + Phenformin (first compound 2.53 µM) it was 0.389; with Seliciclib + Phenformin (first compound 8 µM), 0.481; with Seliciclib + Palbociclib (first compound 0.08 µM) it was 0.432; in the assay with Seliciclib + Palbociclib (first compound 0.253 µM) it was 0.392. Moreover, the relative viability with Seliciclib + Palbociclib (first compound 0.8 µM) turned out to be 0.276; in the assay with Seliciclib + Palbociclib (first compound 2.53 µM), 0.365; with Seliciclib + Palbociclib (first compound 8 µM), 0.397; with Seliciclib + Pictilisib (first compound 0.08 µM) it was 0.379; with Seliciclib + Pictilisib (first compound 0.253 µM), 0.379; with Seliciclib + Pictilisib (first compound 0.8 µM) it was 0.371. In addition, the relative viability came to 0.32 in the assay with Seliciclib + Pictilisib (first compound 2.53 µM) and 0.36 with Seliciclib + Pictilisib (first compound 8 µM).

With NCI-H1734, the relative viability is 0.503 with Seliciclib + Decitabine (first compound 0.08 µM); 0.405 with Seliciclib + Decitabine (first compound 0.253 µM); 0.509 with Seliciclib + Decitabine (first compound 0.8 µM); 0.518 with Seliciclib + Decitabine (first compound 2.53 µM); 0.496 in the assay with Seliciclib + Decitabine (first compound 8 µM); 0.385 with Seliciclib + Phenformin (first compound 0.08 µM). Besides, the relative viability with Seliciclib + Phenformin (first compound 0.253 µM) was determined as 0.35; with Seliciclib + Phenformin (first compound 0.8 µM) it was 0.311; in the assay with Seliciclib + Phenformin (first compound 2.53 µM), 0.334; with Seliciclib + Phenformin (first compound 8 µM), 0.356; with Seliciclib + Palbociclib (first compound 0.08 µM) it was 0.35; in the assay with Seliciclib + Palbociclib (first compound 0.253 µM), 0.26. The relative viability amounted to 0.369 with Seliciclib + Palbociclib (first compound 0.8 µM); 0.286 with Seliciclib + Palbociclib (first compound 2.53 µM); 0.282 in the assay with Seliciclib + Palbociclib (first compound 8 µM); 0.452 with Seliciclib + Pictilisib (first compound 0.08 µM); 0.477 with Seliciclib + Pictilisib (first compound 0.253 µM); 0.385 in the assay with Seliciclib + Pictilisib (first compound 0.8 µM). Besides, the relative viability was found to be 0.379 with Seliciclib + Pictilisib (first compound 2.53 µM) and 0.41 with Seliciclib + Pictilisib (first compound 8 µM).

For NCI-H3122, the relative viability with Seliciclib + Decitabine (first compound 0.08 µM) was 0.399; in the assay with Seliciclib + Decitabine (first compound 0.253 µM), 0.234; in the assay with Seliciclib + Decitabine (first compound 0.8 µM), 0.479; with Seliciclib + Decitabine (first compound 2.53 µM), 0.472; with Seliciclib + Decitabine (first compound 8 µM), 0.294; with Seliciclib + Phenformin (first compound 0.08 µM) it was 0.374. Further, the relative viability in the assay with Seliciclib + Phenformin (first compound 0.253 µM) came out at 0.439; in the assay with Seliciclib + Phenformin (first compound 0.8 µM), 0.368; with Seliciclib + Phenformin (first compound 2.53 µM), 0.384; with Seliciclib + Phenformin (first compound 8 µM) it was 0.353; in the assay with Seliciclib + Palbociclib (first compound 0.08 µM) it was 0.179; with Seliciclib + Palbociclib (first compound 0.253 µM), 0.135. Besides, the relative viability is 0.172 with Seliciclib + Palbociclib (first compound 0.8 µM); 0.172 in the assay with Seliciclib + Palbociclib (first compound 2.53 µM); 0.182 with Seliciclib + Palbociclib (first compound 8 µM); 0.607 with Seliciclib + Pictilisib (first compound 0.08 µM); 0.63 with Seliciclib + Pictilisib (first compound 0.253 µM); 0.432 with Seliciclib + Pictilisib (first compound 0.8 µM). Also, the relative viability with Seliciclib + Pictilisib (first compound 2.53 µM) worked out at 0.509; with Seliciclib + Pictilisib (first compound 8 µM), 0.506.

Regarding HCC-78, the relative viability in the assay with Seliciclib + Decitabine (first compound 0.08 µM) came to 0.706; in the assay with Seliciclib + Decitabine (first compound 0.253 µM), 0.659; with Seliciclib + Decitabine (first compound 0.8 µM), 0.757; with Seliciclib + Decitabine (first compound 2.53 µM), 0.641; with Seliciclib + Decitabine (first compound 8 µM), 0.538; with Seliciclib + Phenformin (first compound 0.08 µM) it was 0.706. Further, the relative viability in the assay with Seliciclib + Phenformin (first compound 0.253 µM) worked out at 0.795; with Seliciclib + Phenformin (first compound 0.8 µM), 0.65; with Seliciclib + Phenformin (first compound 2.53 µM), 0.536; with Seliciclib + Phenformin (first compound 8 µM), 0.474; in the assay with Seliciclib + Palbociclib (first compound 0.08 µM), 0.504; with Seliciclib + Palbociclib (first compound 0.253 µM), 0.438. Besides, the relative viability with Seliciclib + Palbociclib (first compound 0.8 µM) came to 0.514; with Seliciclib + Palbociclib (first compound 2.53 µM), 0.395; with Seliciclib + Palbociclib (first compound 8 µM) it was 0.382; in the assay with Seliciclib + Pictilisib (first compound 0.08 µM) it was 0.203; with Seliciclib + Pictilisib (first compound 0.253 µM), 0.274; in the assay with Seliciclib + Pictilisib (first compound 0.8 µM), 0.187. Also, the relative viability in the assay with Seliciclib + Pictilisib (first compound 2.53 µM) was found to be 0.174; with Seliciclib + Pictilisib (first compound 8 µM), 0.181.

NCI-H2085: the relative viability in the assay with Seliciclib + Decitabine (first compound 0.08 µM) was 0.518; with Seliciclib + Decitabine (first compound 0.253 µM), 0.501; with Seliciclib + Decitabine (first compound 0.8 µM), 0.563; with Seliciclib + Decitabine (first compound 2.53 µM) it was 0.49; in the assay with Seliciclib + Decitabine (first compound 8 µM), 0.483; in the assay with Seliciclib + Phenformin (first compound 0.08 µM), 0.714. For the same cell line, the relative viability in the assay with Seliciclib + Phenformin (first compound 0.253 µM) was 0.658; with Seliciclib + Phenformin (first compound 0.8 µM), 0.692; in the assay with Seliciclib + Phenformin (first compound 2.53 µM), 0.71; in the assay with Seliciclib + Phenformin (first compound 8 µM) it was 0.611; in the assay with Seliciclib + Palbociclib (first compound 0.08 µM), 0.472; in the assay with Seliciclib + Palbociclib (first compound 0.253 µM) it was 0.44. In addition, the relative viability worked out at 0.419 with Seliciclib + Palbociclib (first compound 0.8 µM); 0.41 with Seliciclib + Palbociclib (first compound 2.53 µM); 0.314 in the assay with Seliciclib + Palbociclib (first compound 8 µM); 0.504 with Seliciclib + Pictilisib (first compound 0.08 µM); 0.533 with Seliciclib + Pictilisib (first compound 0.253 µM); 0.394 with Seliciclib + Pictilisib (first compound 0.8 µM). Besides, the relative viability with Seliciclib + Pictilisib (first compound 2.53 µM) worked out at 0.493; in the assay with Seliciclib + Pictilisib (first compound 8 µM) it was 0.425.
